Experimental data as given in patent US4668514A, “Penicillin derivatives” (Taiho Pharmaceutical Company Limited, priority 1983, dated 1987).

Biological target: penicillinase (β-lactamase) derived from Bacillus sp.
Assay: β-lactamase inhibitory activity measured by microiodometry using penicillin G as substrate
Assay type: biochemical
Details: read-out: 50% Inhibitory Concentration
Method: Test for β-lactamase inhibitory activity
The inhibitory activity against penicillinase (β-lactamase) derived from Bacillus sp. was measured by microiodometry Tanpakushitsu Kakusan Koso (Protein Nucleic Acid Enzyme), vol. 23, No. 5, pp 391 to 400 (1978) using penicillin G as a substrate.

| Compound | IC50 |
| --- | --- |
| Cc1nnn(C[C@@]2(C)[C@H](C(=O)O)N3C(=O)C[C@H]3S2(=O)=O)c1C [Compound 2, sodium 2β-(4,5-dimethyl-1,2,3-triazol-1-yl)methyl-2α-methylpenam-3α-carboxylate 1,1-dioxide] | 80 nM |
| CCCCc1nnn(C[C@@]2(C)[C@H](C(=O)O)N3C(=O)C[C@H]3S2(=O)=O)c1CCCC [Compound 5, sodium 2β-(4,5-di-n-butyl-1,2,3-triazol-1-yl)methyl-2α-methylpenam-3α-carboxylate 1,1-dioxide] | 3000 nM |
| CCCCc1cn(C[C@@]2(C)[C@H](C(=O)O)N3C(=O)C[C@H]3S2(=O)=O)nn1 [Compound 8, sodium 2β-(4-n-butyl-1,2,3-triazol-1-yl)methyl-2α-methylpenam-3α-carboxylate 1,1-dioxide] | 230 nM |
| CCCCc1cnnn1C[C@@]1(C)[C@H](C(=O)O)N2C(=O)C[C@H]2S1(=O)=O [Compound 9, sodium 2β-(5-n-butyl-1,2,3-triazol-1-yl)methyl-2α-methylpenam-3α-carboxylate 1,1-dioxide] | 650 nM |
| Cc1cnnn1C[C@@]1(C)[C@H](C(=O)O)N2C(=O)C[C@H]2S1(=O)=O [Compound 11, sodium 2β-(5-methyl-1,2,3-triazol-1-yl)methyl-2α-methylpenam-3α-carboxylate 1,1-dioxide] | 240 nM |
| C[C@]1(Cn2cc(-c3ccccc3)nn2)[C@H](C(=O)O)N2C(=O)C[C@H]2S1(=O)=O [Compound 14, sodium 2β-(4-phenyl-1,2,3-triazol-1-yl)methyl-2α-methylpenam-3α-carboxylate 1,1-dioxide] | 40 nM |
| C[C@]1(Cn2nncc2-c2ccccc2)[C@H](C(=O)O)N2C(=O)C[C@H]2S1(=O)=O [Compound 15, sodium 2β-(5-phenyl-1,2,3-triazol-1-yl)methyl-2α-methylpenam-3α-carboxylate 1,1-dioxide] | 280 nM |
| C[C@]1(Cn2nnc(-c3ccccc3)c2-c2ccccc2)[C@H](C(=O)O)N2C(=O)C[C@H]2S1(=O)=O [Compound 17, 2β-(4,5-diphenyl-1,2,3-triazol-1-yl)methyl-2α-methylpenam-3α-carboxylic acid 1,1-dioxide] | 270 nM |
| C[C@]1(Cn2cc(C(F)(F)F)nn2)[C@H](C(=O)O)N2C(=O)C[C@H]2S1(=O)=O [Compound 19, sodium 2α-methylpenam-2β-(4-trifluoromethyl-1,2,3-triazol-1-yl)methyl-3α-carboxylate 1,1-dioxide] | 240 nM |
| COCc1cnnn1C[C@@]1(C)[C@H](C(=O)O)N2C(=O)C[C@H]2S1(=O)=O [Compound 22, sodium 2β-(5-methoxymethyl-1,2,3-triazol-1-yl)methyl-2α-methylpenam-3α-carboxylate 1,1-dioxide] | 1800 nM |
| CCNC(=O)c1cn(C[C@@]2(C)[C@H](C(=O)O)N3C(=O)C[C@H]3S2(=O)=O)nn1 [Compound 29, sodium 2β-(4-ethylcarbamoyl-1,2,3-triazol-1-yl)methyl-2α-methylpenam-3α-carboxylate 1,1-dioxide] | 20 nM |
| C[C@]1(Cn2nnc(C(N)=O)c2C(N)=O)[C@H](C(=O)O)N2C(=O)C[C@H]2S1(=O)=O [Compound 31, sodium 2β-(4,5-dicarbamoyl-1,2,3-triazol-1-yl)methyl-2α-methylpenam-3α-carboxylate 1,1-dioxide] | 130 nM |
| CC(=O)c1cn(C[C@@]2(C)[C@H](C(=O)OCc3ccc([N+](=O)[O-])cc3)N3C(=O)C[C@H]3S2(=O)=O)nn1 [Compound 32, p-nitrobenzyl 2β-(4-acetyl-1,2,3-triazol-1-yl)methyl-2α-methylpenam-3α-carboxylate 1,1-dioxide] | 120 nM |
| CCOC(=O)c1nnn(C[C@@]2(C)[C@H](C(=O)O)N3C(=O)C[C@H]3S2(=O)=O)c1-c1ccccc1 [Compound 44, sodium 2β-(4-ethoxycarbonyl-5-phenyl-1,2,3-triazol-1-yl)methyl-2α-methylpenam-3α-carboxylate 1,1-dioxide] | 400 nM |
| CCOC(=O)c1c(-c2ccccc2)nnn1C[C@@]1(C)[C@H](C(=O)O)N2C(=O)C[C@H]2S1(=O)=O [Compound 45, sodium 2β-(5-ethoxycarbonyl-4-phenyl-1,2,3-triazol-1-yl)methyl-2α-methylpenam-3α-carboxylate 1,1-dioxide] | 100 nM |
| CC(=O)OCc1nnn(C[C@@]2(C)[C@H](C(=O)O)N3C(=O)C[C@H]3S2(=O)=O)c1COC(C)=O [Compound 47, sodium-2β-(4,5-diacetoxymethyl-1,2,3-triazol-1-yl)methyl-2α-methylpenam-3α-carboxylate 1,1-dioxide] | 2500 nM |
| C[C@]1(Cn2nnc(COCc3ccccc3)c2COCc2ccccc2)[C@H](C(=O)O)N2C(=O)C[C@H]2S1(=O)=O [Compound 49, 2β-(4,5-dibenzyloxymethyl-1,2,3-triazol-1-yl)methyl-2α-methylpenam-3α-carboxylic acid 1,1-dioxide] | 1500 nM |
| C[C@]1(Cn2nnc(CO)c2CO)[C@H](C(=O)O)N2C(=O)C[C@H]2S1(=O)=O [Compound 50, sodium 2β-(4,5-dihydroxymethyl-1,2,3-triazol-1-yl)methyl-2α-methylpenam-3α-carboxylate 1,1-dioxide] | 2000 nM |
| C[C@]1(Cn2cc(N)nn2)[C@H](C(=O)O)N2C(=O)C[C@H]2S1(=O)=O [Compound 55, 2β-(4-amino-1,2,3-triazol-1-yl)methyl-2α-methylpenam-3α-carboxylic acid 1,1-dioxide] | 700 nM |
